Laboratory results published in ChEMBL document CHEMBL3856210, “Discovery of in vitro antitubercular agents through in silico ligand-based approaches” (Eur J Med Chem, 2016).
≈ marks a conversion by molar mass, not a printed value.

Assay: Drug level in human liver microsomes assessed as CYP450-mediated compound formation treated with (+/-)-1-(4-Chlorophenyl)-2-(1H-imidazol-1-yl)ethyl-4-(3,4-dichlorophenyl)piperazine-1-carboxylate at 50 uM after 60 mins in presence of NADPH by LC-MS analysis
Type: ADME
Settings: not given

Compound	Drug metabolism
O=C(OC(c1ccc(Cl)cc1)C(O)n1ccnc1)N1CCN(c2ccc(Cl)c(Cl)c2)CC1 (stereo unspecified)	Metabolite_Detected

Assay: Antitubercular activity against Mycobacterium tuberculosis H37Ra ATCC 25177 after 21 days by agar dilution method
Type: functional
Settings: ATCC 25177, 504 h

Compound	MIC [µg/mL]
O=C(c1ccc(Cl)cc1)c1c(C(F)(F)F)[nH]n(-c2ccccc2)c1=O	> 64
COCc1cc(=O)n2nc(C)c(-c3ccc(Cl)cc3)c2[nH]1	16 (≈ 52.7 µM)
Cc1ncc(-c2cc(=O)n3nc(C)c(-c4ccc(Cl)cc4)c3[nH]2)c(C)n1	2 (≈ 5.47 µM)
Cc1n[nH]c(C)c1CCc1cc(=O)n2nc(C)c(-c3ccc(Cl)cc3)c2[nH]1	8 (≈ 20.9 µM)
CNCCC/C(=C1\C(=O)N(c2ccc(Cl)cc2)N=C1C)c1ccc(Cl)cc1	64 (≈ 159 µM)
O=C(OC(Cn1ccnc1)c1ccc(Cl)cc1)N1CCN(c2ccc([N+](=O)[O-])cc2)CC1 (racemic)	16 (≈ 35.1 µM)
COc1ccc(C(CNS(=O)(=O)N2CCCC2)c2c[nH]c3ccccc23)cc1 (stereo unspecified)	32 (≈ 80.1 µM)
O=C(c1ccc(Cl)cc1)c1c(-c2ccccc2)[nH]n(-c2ccc(Cl)cc2)c1=O	16 (≈ 39.1 µM)
CC1=NN(c2ccc(Cl)cc2)C(=O)/C1=C\N1CCN(C)CC1	64 (≈ 201 µM)
Cc1cc(=O)n2nc(C)c(-c3ccc(Cl)cc3)c2[nH]1	32 (≈ 117 µM)
O=C(O[C@H](Cn1ccnc1)c1ccccc1)N1CCN(c2ccc(Cl)c(Cl)c2)CC1	16 (≈ 35.9 µM)
CCCc1cc(=O)n2nc(C)c(-c3ccc(OC)cc3)c2[nH]1	32 (≈ 108 µM)
CO/N=C(\c1ccc(Cl)cc1)c1c(C)nn(-c2ccc(Cl)cc2)c1O	25 (≈ 66.4 µM)
Cc1[nH]n(-c2ccc(Br)cc2)c(=O)c1C(=O)c1ccc(Cl)cc1	4 (≈ 10.2 µM)
CO/N=C(\c1ccc(Cl)cc1)c1c(C)nn(-c2ccccc2)c1O	25 (≈ 73.1 µM)
O=C(Nc1ccc(Sc2ccc([N+](=O)[O-])cc2)cc1)O[C@H](Cn1ccnc1)c1ccc(Cl)cc1	16 (≈ 32.3 µM)
CCc1c(CN2CCSCC2)cc(-c2ccccc2)n1-c1ccccc1	2 (≈ 5.52 µM)
CSc1ccccc1-n1c(-c2ccc(F)cc2)cc(CN2CCSCC2)c1C	8 (≈ 19.4 µM)
O=C(O[C@H](Cn1ccnc1)c1ccc(-c2ccccc2)cc1)N1CCN(c2ccc(Cl)c(Cl)c2)CC1	16 (≈ 30.7 µM)
Cc1c(C(=O)c2ccc(Cl)cc2)c(=O)n(-c2ccccc2)n1Cc1ccccc1	> 64
CC1=NN(c2ccc(Cl)cc2)C(=O)/C1=C(/c1ccc(Cl)cc1)N1CCSCC1	8 (≈ 18.5 µM)
CN1C(=O)C2C(N=C(Oc3ccc(Cl)cc3)N2Cc2cccc(F)c2)N(C)C1=O (stereo unspecified)	64 (≈ 154 µM)
CC(=O)N1CCN(/C=C2\C(=O)N(c3ccc(Cl)cc3)N=C2C)CC1	64 (≈ 185 µM)
Cc1cc(/C=N\OCc2ccccc2)c(C)n1-c1ccccc1	> 100
C=CCn1cnc2sc(C)c(-c3ccc(Cl)cc3)c2c1=O	32 (≈ 101 µM)
